Molecular target: T1, Human M4 (Homo sapiens, UniProt P08173)
T1 construct: Human or rat M4 cDNA, along with the chimeric G protein Gq,5, were transfected into Chinese hamster ovary (CHO-K1) cells; expressed in transfected cells; host or cells: CHO-K1 (M4/Gqi5/CHO)
T1 sequence (P08173 1-479): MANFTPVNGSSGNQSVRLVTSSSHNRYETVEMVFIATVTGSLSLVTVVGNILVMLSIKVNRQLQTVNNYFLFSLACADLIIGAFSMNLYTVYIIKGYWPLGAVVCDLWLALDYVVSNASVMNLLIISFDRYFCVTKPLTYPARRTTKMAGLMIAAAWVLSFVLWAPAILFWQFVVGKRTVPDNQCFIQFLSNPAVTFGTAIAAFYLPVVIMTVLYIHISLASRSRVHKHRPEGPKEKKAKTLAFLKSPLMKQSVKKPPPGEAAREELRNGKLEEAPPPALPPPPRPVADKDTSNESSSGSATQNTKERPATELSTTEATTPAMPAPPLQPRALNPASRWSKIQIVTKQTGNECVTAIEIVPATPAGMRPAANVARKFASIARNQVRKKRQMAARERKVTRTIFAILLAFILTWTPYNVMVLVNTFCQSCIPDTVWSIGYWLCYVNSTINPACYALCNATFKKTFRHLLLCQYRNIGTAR
Test: mAChR M4 cell-based functional assay (calcium flux, decrease of EC80 acetylcholine response)
Settings: for Human M4 Emin: % ACh maximum at 30 μM; for IC50: CHO-K1 cells with human M4 and Gqi5, EC80 acetylcholine
Method: Human or rat M4 cDNA, along with the chimeric G protein Gq,5, were transfected into Chinese hamster ovary (CHO-K1) cells purchased from the American Type Culture Collection using Lipofectamine2000. M4/Gqi5/CHO cells were grown in Ham's F-12 medium containing 10% heat-inactivated fetal bovine serum (FBS), 20 mM HEPES, 500 μg/mL G^418 sulfate, and 200 μg/mL Hygromycin B.
For high throughput measurement of agonist-evoked increases in intracellular calcium, CHO-K1 cells stably expressing muscarinic receptors were plated in growth medium lacking G418 and hygromycin at 15,000 cells/20 μL/well in Greiner 384-well black-walled, tissue culture (TC)-treated, clear-bottom plates (VWR). Cells were incubated overnight at 37° C. and 5% CO2. The next day, cells were washed using an ELX 405 (BioTek) with assay buffer; the final volume was then aspirated to 20 μL. Next, 20 μL of a 2.3 μM stock of Fluo-4/acetoxymethyl ester (Invitrogen, Carlsbad, Calif.), prepared as a 2.3 mM stock in DMSO and mixed in a 1:1 ratio with 10% (w/v) Pluronic F-127 and diluted in assay buffer, was added to the wells and the cell plates were incubated for 50 min at 37° C. and 5% CO2. Dye was removed by washing with the ELX 405 and the final volume was aspirated to 20 μL. Compound master plates were formatted in a 10 point concentration-response curve (CRC) format (1:3 dilutions) in 100% DMSO with a starting concentration of 10 or 1 mM using a BRAVO liquid handler (Agilent). Test compound CRCs were then transferred to daughter plates (240 nL) using the Echo acoustic plate reformatter (Labcyte, Sunnyvale, Calif.) and then diluted into assay buffer (40 μL) to a 2× stock using a Thermo Fisher Combi (Thermo Fisher Scientific, Waltham, Mass.).
Calcium flux was measured using the Functional Drug Screening System (FDSS) 6000 or 7000 (Hamamatsu Corporation, Tokyo, Japan) as an increase in the fluorescent static ratio. Compounds were applied to cells (20 μL, 2×) using the automated system of the FDSS at 2 seconds into the protocol and the data were collected at 1 Hz. At 143 s, 10 μL of an EC20 concentration of the muscarinic receptor agonist acetylcholine was added (5×), followed by the addition of […] of an EC80 concentration of acetylcholine at the 268 s time point (5×). Agonist activity was analyzed as a concentration-dependent increase in calcium mobilization upon compound addition. Positive allosteric modulator activity was analyzed as a concentration-dependent increase in the EC2o acetylcholine response. Antagonist activity was analyzed as a concentration-dependent decrease in the EC80 acetylcholine response; for the purposes of the tables herein, an IC50 (inhibitory concentration 50) was calculated as a concentration-dependent decrease of the response elicited by an EC80 concentration of acetylcholine. Concentration-response curves were generated using a four-parameter logistical equation in XLFit curve fitting software (IDBS, Bridgewater, N.J.) for Excel (Microsoft, Redmond, Wash.) or Prism (GraphPad Software, Inc., San Diego, Calif.) or the Dotmatics software platform (Dotmatics, Bishop's Stortford, UK).
Compounds were synthesized as described above. Activity (IC50 and Emin) was determined in the mAChR M4 cell-based functional assay as described above and the data are shown in Table 2.

| Structure (SMILES) | Human M4 Emin [%] | IC50 [µM] |
| --- | --- | --- |
| Fc1cc(F)c(F)c(-c2ccc(N[C@H]3C[C@@H]4CN(C[C@H]5CC6CCC5O6)C[C@@H]4C3)nn2)c1 (stereo partly drawn) [Compound 31, (3aR,5s,6aS)-2-(((2R)-7-oxabicyclo[2.2.1]heptan-2-yl)methyl)-N-(6-(2,3,5-trifluorophenyl)pyridazin-3-yl)octahydrocyclopenta[c]pyrrol-5-amine] | 3 | 0.00147 |
| Fc1cc(F)c(F)c(-c2ccc(N[C@H]3C[C@@H]4CN(C[C@@H]5CC6CCC5O6)C[C@@H]4C3)nn2)c1 (stereo partly drawn) [Compound 32, (3aR,5s,6aS)-2-(((2S)-7-oxabicyclo[2.2.1]heptan-2-yl)methyl)-N-(6-(2,3,5-trifluorophenyl)pyridazin-3-yl)octahydrocyclopenta[c]pyrrol-5-amine] | 3 | 0.00048 |
| [2H]C([2H])(N1C[C@H]2C[C@H](Nc3ccc(-c4cc(F)cc(F)c4F)nn3)C[C@H]2C1)C1(CC)CCOCC1 [Compound 33, (3aR,5s,6aS)-2-((4-ethyltetrahydro-2H-pyran-4-yl)methyl-d2)-N-(6-(2,3,5-trifluorophenyl)pyridazin-3-yl)octahydrocyclopenta[c]pyrrol-5-amine] | 3 | 0.0396 |
| Fc1cc(F)c(F)c(-c2ccc(N[C@H]3C[C@@H]4CN(C5CCCCC5)C[C@@H]4C3)nn2)c1 [Compound 34, (3aR,5s,6aS)-2-cyclohexyl-N-(6-(2,3,5-trifluorophenyl)pyridazin-3-yl)octahydrocyclopenta[c]pyrrol-5-amine] | 2 | 0.0387 |
| Fc1cc(F)c(F)c(-c2ccc(N[C@H]3C[C@@H]4CN(C5CC6(COC6)C5)C[C@@H]4C3)nn2)c1 [Compound 35, (3aR,5s,6aS)-2-(2-oxaspiro[3.3]heptan-6-yl)-N-(6-(2,3,5-trifluorophenyl)pyridazin-3-yl)octahydrocyclopenta[c]pyrrol-5-amine] | 3 | 0.798 |
| Fc1cc(F)c(F)c(-c2ccc(N[C@H]3C[C@@H]4CN(Cc5cc6n(n5)CCOC6)C[C@@H]4C3)nn2)c1 [Compound 36, (3aR,5s,6aS)-2-((6,7-dihydro-4H-pyrazolo[5,1-c][1,4]oxazin-2-yl)methyl)-N-(6-(2,3,5-trifluorophenyl)pyridazin-3-yl)octahydrocyclopenta[c]pyrrol-5-amine] | 3 | 0.00222 |
| Fc1cc(F)c(F)c(-c2ccc(N[C@H]3C[C@@H]4CN(Cc5ccc6c(c5)OC(F)(F)O6)C[C@@H]4C3)nn2)c1 [Compound 37, (3aR,5s,6aS)-2-((2,2-difluorobenzo[d][1,3]dioxol-5-yl)methyl)-N-(6-(2,3,5-trifluorophenyl)pyridazin-3-yl)octahydrocyclopenta[c]pyrrol-5-amine] | 11 | 1.01 |
| Fc1cc(F)c(F)c(-c2ccc(N[C@H]3C[C@@H]4CN(Cc5ccnnc5)C[C@@H]4C3)nn2)c1 [Compound 38, (3aR,5s,6aS)-2-(pyridazin-4-ylmethyl)-N-(6-(2,3,5-trifluorophenyl)pyridazin-3-yl)octahydrocyclopenta[c]pyrrol-5-amine] | 16 | 5.21 |
| [2H]C([2H])([C@H]1COCCO1)N1C[C@H]2C[C@H](Nc3ccc(-c4cc(F)cc(F)c4F)nn3)C[C@H]2C1 [Compound 39, (3aR,5s,6aS)-2-(((S)-1,4-dioxan-2-yl)methyl-d2)-N-(6-(2,3,5-trifluorophenyl)pyridazin-3-yl)octahydrocyclopenta[c]pyrrol-5-amine] | 3 | 0.00056 |
| [2H]C([2H])([C@H]1CCCCO1)N1C[C@H]2C[C@H](Nc3ccc(-c4cc(F)cc(F)c4F)nn3)C[C@H]2C1 [Compound 40, (3aR,5s,6aS)-2-(((R)-tetrahydro-2H-pyran-2-yl)methyl-d2)-N-(6-(2,3,5-trifluorophenyl)pyridazin-3-yl)octahydrocyclopenta[c]pyrrol-5-amine] | 3 | 0.00148 |
| [2H]C([2H])([C@H]1CCOC1)N1C[C@H]2C[C@H](Nc3ccc(-c4cc(F)cc(F)c4F)nn3)C[C@H]2C1 [Compound 41, (3aR,5s,6aS)-2-(((R)-tetrahydrofuran-3-yl)methyl-d2)-N-(6-(2,3,5-trifluorophenyl)pyridazin-3-yl)octahydrocyclopenta[c]pyrrol-5-amine] | 3 | 0.0646 |
| [2H]C([2H])([C@@H]1COCCO1)N1C[C@H]2C[C@H](Nc3ccc(-c4cc(F)cc(F)c4F)nn3)C[C@H]2C1 [Compound 42, (3aR,5s,6aS)-2-(((R)-1,4-dioxan-2-yl)methyl-d2)-N-(6-(2,3,5-trifluorophenyl)pyridazin-3-yl)octahydrocyclopenta[c]pyrrol-5-amine] | 3 | 0.035 |
| [2H]C([2H])([C@@H]1CCCCO1)N1C[C@H]2C[C@H](Nc3ccc(-c4cc(F)cc(F)c4F)nn3)C[C@H]2C1 [Compound 43, (3aR,5s,6aS)-2-(((S)-tetrahydro-2H-pyran-2-yl)methyl-d2)-N-(6-(2,3,5-trifluorophenyl)pyridazin-3-yl)octahydrocyclopenta[c]pyrrol-5-amine] | 4 | 0.00095 |
| [2H]C([2H])([C@@H]1CCOC1)N1C[C@H]2C[C@H](Nc3ccc(-c4cc(F)cc(F)c4F)nn3)C[C@H]2C1 [Compound 44, (3aR,5s,6aS)-2-(((S)-tetrahydrofuran-3-yl)methyl-d2)-N-(6-(2,3,5-trifluorophenyl)pyridazin-3-yl)octahydrocyclopenta[c]pyrrol-5-amine] | 2 | 0.0313 |
| [2H]C(C)(N1C[C@H]2C[C@H](Nc3ccc(-c4cc(F)cc(F)c4F)nn3)C[C@H]2C1)C1(C)CCOCC1 (stereo partly drawn) [Compound 45, (3aR,5s,6aS)-2-(1-(4-methyltetrahydro-2H-pyran-4-yl)ethyl-1-d)-N-(6-(2,3,5-trifluorophenyl)pyridazin-3-yl)octahydrocyclopenta[c]pyrrol-5-amine] | 1 | 0.141 |
| CC(N1C[C@H]2C[C@H](Nc3ccc(-c4cc(F)cc(F)c4F)nn3)C[C@H]2C1)C1(C)CCOCC1 (stereo partly drawn) [Compound 46, (3aR,5s,6aS)-2-(1-(4-methyltetrahydro-2H-pyran-4-yl)ethyl)-N-(6-(2,3,5-trifluorophenyl)pyridazin-3-yl)octahydrocyclopenta[c]pyrrol-5-amine] | 2 | 0.0589 |
| [2H]C([2H])(N1C[C@H]2C[C@H](Nc3ccc(-c4cc(F)cc(F)c4F)nn3)C[C@H]2C1)C1(OC)CCCOC1 (stereo partly drawn) [Compound 48, (3aR,5s,6aS)-2-((3-methoxytetrahydro-2H-pyran-3-yl)methyl-d2)-N-(6-(2,3,5-trifluorophenyl)pyridazin-3-yl)octahydrocyclopenta[c]pyrrol-5-amine] | 2 | 0.184 |
